Reference: patent US20050239735A1, “Enhancement of immune responses” (3M Innovative Properties Company, priority 2003, published 2005)

What was measured:
[1] = system: adherent cells from human PBMC; assay: Type I IFN production by adherent cells from human PBMC, virus neutralization bioassay of supernatants; type: cell-based
Description: (§1) The amount of Type I interferon (IFN) and tumor necrosis factor-α (TNF-α) produced by the cells in response to the treatment is also recorded in Table I.
(§2) Briefly, adherent cells from human PBMC were treated with 1-100 U/mL recombinant IFN-α (Lee BioMolecular, San Diego, Calif.) for 24 hours, washed, and then treated with IRM (a concentrated solution of IRM in cell culture medium was added to reach the final concentration indicated in Table I) for an additional 24 hours. A separate group of control cells were treated only with IRM for 24 hours. Cell-free supernatants were then isolated from all of the cultures and analyzed for Type I IFN or TNF-α.
(§3) Type I IFN production was assayed using a virus neutralization bioassay using A549 human lung carcinoma cells challenged with encephalomyocarditis. The details of the bioassay method have been described by G. L. Brennan and L. H. Kronenberg in “Automated Bioassay of Interferons in Micro-test Plates”, Biotechniques, June/July, 78, 1983, incorporated herein by reference. Briefly stated the method is as follows: A549 cells are incubated with dilutions of samples or a standard interferon at 37° C. for 24 hours. The incubated cells are then infected with an inoculum of encephalomyocarditis virus. The infected cells are incubated for an additional 24 hours at 37° C. before evaluating for viral cytopathic effect. The viral cytopathic effect is quantified by staining with crystal violet followed by visual scoring of the plates. Results are expressed as IFN-α reference units/mL based on the value obtained for NIH Human Leukocyte IFN standard. TNF-α production was determined by ELISA (Biosource International, Inc., Camarillo, Calif.).
(§4) Adherent cells are obtained and prepared as described in Example 1. The cells are pre-treated as described in Example 1 with either poly(I:C), recombinant IFN-γ, recombinant IFN-α, or receive no pre-treatment. The cells are washed as described in Example 1, then treated as described in Example 1 with either IRM1, IRM2, IRM3, IRM4, IRM5, IRM6, IRM7, IRM8, or IRM9 for 24 hours.
(§5) Cell free supernatants are isolated from all of the cultures and analyzed for Type I IFN or TNF-α.

[2] = system: adherent cells from human PBMC; assay: TNF-α production by adherent cells from human PBMC, ELISA of supernatants; type: cell-based
Description: as §1, §2, §3, §4, §5

[3] = IRM1 0.3 μM for 24 hours after pre-treatment with 1-100 U/mL recombinant IFN-α for 24 hours, washed
[4] = IRM1 0.3 μM for 24 hours, no pre-treatment
[5] = IRM1 3.0 μM for 24 hours after pre-treatment with 1-100 U/mL recombinant IFN-α for 24 hours, washed
[6] = IRM1 3.0 μM for 24 hours, no pre-treatment

In the case of Cc1nc2c(N)nc3ccccc3c2n1CC(C)(C)O [IRM1, 4-amino-α,α,2-trimethyl-1H-imidazo[4,5-c]quinoline-1-ethanol], the IFN-α [1, 3] is reported as 3,788 U/mL, the IFN-α [1, 4] is reported as 5 U/mL and the IFN-α [1, 5] is reported as 3,788 U/mL. It also gave an IFN-α [1, 6] of 5 U/mL, a TNF-α [2, 3] of 114 pg/mL and a TNF-α [2, 4] of 437 pg/mL. For the same molecule, the TNF-α [2, 5] was 284 pg/mL and the TNF-α [2, 6] was 3295 pg/mL.
